Structures can show the parent of a compound that is named as a salt.
Tests used:
[1] = system: HCT116 FOP control reporter cell line; test: HCT116 FOP control vector reporter assay (non-functional TCF elements); assay type: cell-based; settings: Homo sapiens, HCT-116, 36 h, HCT116 FOP control reporter cells, luciferase expression, 36 hours incubation, 50 μM to 15 nM; read-out: HCT116 FOPFlash IC50
Summary of the method: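 Stable HCT116 line carrying the non-functional FOP luciferase construct, 10000 cells/well plated 24 hrs before. Compounds 50 μM to 15 nM (3.16-fold steps) in CAFTY buffer pH 7.4 with 2 mM Ca2+, 36 hours at 37° C; luciferase luminescence read.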

[2] = system: constitutive active colorectal cancer cell (CRC) Wnt pathway; test: HCT116 Super TopFlash cellular reporter assay (constitutive active Wnt pathway); assay type: cell-based; settings: Homo sapiens, HCT-116, 36 h, HCT116 TOP reporter cells, luciferase expression, 36 hours incubation, 50 μM to 15 nM
Summary of the method: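 Luciferase luminescence served as the Wnt read-out after 36 h of compound treatment at 37 °C. Compound came from a pre-dilution series (50 μM down to 15 nM, 3.16-fold steps) in CAFTY buffer. Cells were stable HCT116 TOP reporter cells, with matched FOP-vector control cells tested in parallel, seeded a day earlier.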

COc1ccc(NC(=O)c2ccc(-c3ccccc3)cc2)cc1NC(=O)Cc1ccc(F)cc1 [Example 138, N-(3-{[(4-fluorophenyl)acetyl]amino}-4-methoxyphenyl)biphenyl-4-carboxamide]
IC50 [1]: ≥ 50 µM
IC50 [2]: 1200 nM

CC(CN1CCOCC1)C(=O)Nc1cc(C(=O)Nc2ccc(-c3ccccc3)cc2)ccc1C(F)(F)F (centres unmarked) [Example 139, N-(biphenyl-4-yl)-3-{[2-methyl-3-(morpholin-4-yl)propanoyl]amino}-4-(trifluoromethyl)benzamide]
IC50 [1]: ≥ 50 µM
IC50 [2]: 1430 nM

O=C(CNCCO)Nc1cc(NC(=O)c2ccc(-c3ccccc3)cc2)ccc1OC(F)(F)F [Example 140, N-[3-{[N-(2-hydroxyethyl)glycyl]amino}-4-(trifluoromethoxy)phenyl] biphenyl-4-carboxamide]
IC50 [1]: 25 µM
IC50 [2]: 1700 nM

COc1ccc(NC(=O)c2ccc(-c3ccccc3)cc2)cc1NC(=O)CCN1CCOCC1 [Example 141, N-(4-methoxy-3-{[3-(morpholin-4-yl)propanoyl]amino}phenyl) biphenyl-4-carboxamide]
IC50 [1]: ≥ 50 µM
IC50 [2]: 2500 nM

COc1ccc(NC(=O)c2ccc(-c3ccccc3)cc2)cc1NC(=O)Cc1cccc(F)c1 [Example 142, N-(3-{[(3-fluorophenyl)acetyl]amino}-4-methoxyphenyl)biphenyl-4-carboxamide]
IC50 [1]: ≥ 50 µM
IC50 [2]: 2850 nM

COc1cccc(CC(=O)Nc2cc(NC(=O)c3ccc(-c4ccccc4)cc3)ccc2OC)c1 [Example 143, N-(4-methoxy-3-{[(3-methoxyphenyl}acetyl]amino}phenyl)biphenyl-4-carboxamide]
IC50 [1]: ≥ 50 µM
IC50 [2]: 3300 nM

COc1ccc(CC(=O)Nc2cc(NC(=O)c3ccc(-c4ccccc4)cc3)ccc2OC)cc1 [Example 144, N-(4-methoxy-3-{[(4-methoxyphenyl)acetyl]amino}phenyl)biphenyl-4-carboxamide]
IC50 [1]: ≥ 50 µM
IC50 [2]: 3850 nM

COc1ccc(NC(=O)c2ccc(-c3ccccc3)cc2)cc1NC(=O)CC1CCCCC1 [Example 145, N-{3-((cyclohexylacetyl)amino]-4-methoxyphenyl}biphenyl-4-carboxamide]
IC50 [1]: ≥ 50 µM
IC50 [2]: 4800 nM

COC(=O)c1ccc(C(=O)Nc2ccc(-c3ccccc3)cc2)cc1NC(=O)C1(N2CCOCC2)CC1 [Example 147, methyl 4-(biphenyl-4-ylcarbamoyl)-2-({[1-(morpholin-4-yl)cyclopropyl]carbonyl}amino)benzoate]
IC50 [1]: ≥ 50 µM
IC50 [2]: 10.2 nM

O=C(Nc1ccc(OC(F)(F)F)c(NC(=O)C2(N3CCOCC3)CC2)c1)c1ccc(-c2ccccc2)cc1 [Example 148, N-[3-({[1-(morpholin-4-yl)cyclopropyl]carbonyl}amino)-4-(trifluoromethoxy)phenyl] biphenyl-4-carboxamide]
IC50 [1]: ≥ 50 µM
IC50 [2]: 12.2 nM

COCc1ccc(C(=O)Nc2ccc(-c3ccccc3)cc2)cc1NC(=O)C1(N2CCN(C3CC3)CC2)CC1 [Example 149, N-(biphenyl-4-yl)-3-({[1-(4-cyclopropylpiperazin-1-yl)cyclopropyl]carbonyl}amino)-4-(methoxymethyl)benzamide]
IC50 [1]: 15 µM
IC50 [2]: 13.3 nM

COc1ccc(NC(=O)c2ccc(-c3ccccc3)cc2)cc1NC(=O)C1(N2CCOCC2)CC1 [Example 150, N-[4-methoxy-3-({[1-(morpholin-4-yl)cyclopropyl]carbonyl}amino)phenyl]biphenyl-4-carboxamide]
IC50 [1]: ≥ 50 µM
IC50 [2]: 26.2 nM

O=C(Nc1ccc(-c2ccccc2)cc1)c1ccc(F)c(NC(=O)C2(N3CCOCC3)CC2)c1 [Example 151, N-(biphenyl-4-yl)-4-fluoro-3-({[1-(morpholin-4-yl)cyclopropyl]carbonyl}amino)benzamide]
IC50 [1]: ≥ 50 µM
IC50 [2]: 28.2 nM

O=C(Nc1ccc(-c2ccccc2)cc1)c1ccc(Br)c(NC(=O)C2(N3CCOCC3)CC2)c1 [Example 152, N-(biphenyl-4-yl)-4-bromo-3-({[1-(morpholin-4-yl)cyclopropyl]carbonyl}amino)benzamide]
IC50 [1]: 29 µM
IC50 [2]: 33.8 nM

COc1ccc(C(=O)Nc2ccc(-c3ccccc3)cc2)cc1NC(=O)[C@@H](C)N1CCOCC1 [Example 153, N-(biphenyl-4-yl)-4-methoxy-3-{[(2R)-2-(morpholin-4-yl)propanoyl]amino} benzamide]
IC50 [1]: ≥ 50 µM
IC50 [2]: 44 nM

COCc1ccc(C(=O)Nc2ccc(-c3ccccc3)cc2)cc1NC(=O)CN1CC2CCC(C1)O2 [Example 154, N-(biphenyl-4-yl)-4-(methoxymethyl)-3-[(8-oxa-3-azabicyclo[3.2.1]oct-3-ylacetyl)amino]benzamide]
IC50 [1]: 42.5 µM
IC50 [2]: 47.6 nM

CC(C)NC(=O)c1ccc(C(=O)Nc2ccc(-c3ccccc3)cc2)cc1NC(=O)CN1CCOCC1 [Example 155, N^4-(biphenyl-4-yl)-2-[(morpholin-4-ylacetyl)amino]-N^1-(propan-2-yl)benzene-1,4-dicarboxamide]
IC50 [1]: ≥ 50 µM
IC50 [2]: 49.8 nM

COc1ccc(C(=O)Nc2ccc(-c3ccccc3)cc2)cc1NC(=O)C1(N2CCN(C3CC3)CC2)CC1 [Example 156, N-(biphenyl-4-yl)-3-({[1-(4-cyclopropylpiperazin-1-yl)cyclopropyl)carbonyl}amino)-4-methoxybenzamide]
IC50 [1]: ≥ 50 µM
IC50 [2]: 52.7 nM

COCc1ccc(C(=O)Nc2ccc(-c3ccccc3)cc2)cc1NC(=O)C(C)N1CCOCC1 (centres unmarked) [Example 157, N-(biphenyl-4-yl)-4-(methoxymethyl)-3-{[2-(morpholin-4-yl)propanoyl)amino} benzamide]
IC50 [1]: 43.5 µM
IC50 [2]: 60.5 nM

COCc1ccc(C(=O)Nc2ccc(-c3ccccc3)cc2)cc1NC(=O)C1(N(C)C)CC1 [Example 158]
IC50 [1]: ≥ 50 µM
IC50 [2]: 63 nM

Cc1ccc(C(=O)Nc2ccc(-c3ccccc3)cc2)cc1NC(=O)C1(N2CCOCC2)CC1 [Example 159, N-(biphenyl-4-yl)-4-methyl-3-({[1-(morpholin-4-yl)cyclopropyl)carbonyl}amino)benzamide]
IC50 [1]: ≥ 50 µM
IC50 [2]: 70.5 nM

COCCCOCc1ccc(C(=O)Nc2ccc(-c3ccccc3)cc2)cc1NC(=O)C(C)N1CCOCC1 (centres unmarked) [Example 160, N-(biphenyl-4-yl)-4-[(3-methoxypropoxy)methyl]-3-([2-(morpholin-4-yl)propanoyl]amino} benzamide]
IC50 [1]: 30 µM
IC50 [2]: 79.5 nM

CC(C(=O)Nc1cc(NC(=O)c2ccc(-c3ccccc3)cc2)ccc1C(F)(F)F)N1CCOCC1 (centres unmarked) [Example 161, N-[3-{[2-(morpholin-4-yl)propanoyl]amino}-4-(trifluoromethyl)phenyl] biphenyl-4-carboxamide]
IC50 [1]: ≥ 50 µM
IC50 [2]: 98 nM

COc1ccc(NC(=O)c2ccc(-c3ccccc3)cc2)cc1NC(=O)C1(N2CCN(C)CC2)CC1 [Example 163, N-[4-methoxy-3-({[1-(4-methylpiperazin-1-yl)cyclopropyl]carbonyl}amino)phenyl]biphenyl-4-carboxamide hydrochloride (1:1)]
IC50 [1]: 12.6 µM
IC50 [2]: 127 nM

COCCOCc1ccc(C(=O)Nc2ccc(-c3ccccc3)cc2)cc1NC(=O)C(C)N1CCOCC1 (centres unmarked) [Example 164, N-(biphenyl-4-yl)-4-[(2-methoxyethoxy)methyl]-3-{[2-(morpholin-4-yl)propanoyl]amino} benzamide]
IC50 [1]: ≥ 50 µM
IC50 [2]: 134 nM

Reference: patent publication US20160052898A1, “NOVEL COMPOUNDS” (BAYER PHARMA AKTIENGESELLSCHAFT, priority 2013, published 2016)
